Consider twelve compounds from ChEMBL document CHEMBL1126704, “Dibenzoxepin derivatives: thromboxane A2 synthase inhibition and thromboxane A2 receptor antagonism combined in one molecule” (J Med Chem, 1993).

For orientation: Ki means a dissociation constant, usually derived from enzyme kinetics or from competition with a known ligand. The term inhibition denotes the change of the read-out against control, counted positive when it falls. As a reminder, the IC50 is the concentration needed to halve the response being measured. A low value points to greater potency in that assay.

SMILES strings stand for the structures.

A short description of assay [1]: Tested for specific binding of radioligand [3H]U-46619 to thromboxane A2/prostaglandin H2 receptor in guinea pig washed platelets. On the set-up: species or system Cavia porcellus.
For assay [2], the system named is Thromboxane-A synthase (Bos taurus). Nature of the assay: Tested against TXA2 synthase in bovine platelet microsome at 10 uM.
The test system of assay [3] is Rattus norvegicus. The experiment in a line: Tested for the effect at 30 mg/kg through peroral route on rat blood urea nitrogen, 48 hr after reperfusion; (p<0.05). As to conditions: route oral. It is filed as functional.
Assay [4] deals with Rattus norvegicus. The experiment in a line: Tested for the effect at 30 mg/kg through peroral route on rat blood urea nitrogen, 24 hr after reperfusion; (p<0.01). It is filed as functional. As to conditions: route oral.
The species named for assay [5] is Homo sapiens. The experiment in a line: In vitro inhibition of U-46619 (3 uM) -induced human platelet aggregation. It counts as functional.
The subject of assay [6] is Rattus norvegicus. The experiment in a line: Tested for the effect at 30 mg/kg through peroral route on rat serum creatinine, 48 hr after reperfusion. It counts as functional, organism-based. On the set-up: dose 30 mg/kg.
Assay [7] has as its system Rattus norvegicus. Nature of the assay: Tested for the effect at 30 mg/kg through peroral route on rat serum creatinine, 24 hr after reperfusion; (p<0.05). It is filed as functional, organism-based. Also noted: dose 30 mg/kg.
The nature of assay [8]: Tested for specific binding of radioligand [3H]U-46619 to thromboxane A2 /prostaglandin H2 receptor in guinea pig washed platelets. Also noted: species or system Cavia porcellus.
For assay [9], the species on record is Cavia porcellus. The experiment in a line: Tested for inhibition against thromboxane A2/prostaglandin H2 receptor in guinea pig washed platelets using radioligand [3H]U-46619 at 1 uM.
The species named for assay [10] is Cavia porcellus. Nature of the assay: Tested for inhibition against thromboxane A2/prostaglandin H2 receptor in guinea pig washed platelets using radioligand [3H]U-46619 at 100 uM.

In assay [1], `O=C(O)c1ccc2c(c1)C(SCc1ccccc1)c1ccccc1CO2` (racemic) came in with a Ki of 40 nM. Also, in assay [2], the inhibition amounted to 19%.
Take `O=C(O)c1ccc2c(c1)/C(=C\Cc1cccnc1)c1ccccc1CO2`: the figures for the Blood urea nitrogen in [3] and in assay [4] were 30.37 and 34.18, respectively. This compound displayed an inhibitory constant (Ki) in assay [1] of 180 nM. This compound also showed an IC50 in [5] of 9600 nM. In addition, the results for the Serum creatinine in assay [6] and in assay [7] were 1.16 and 1.48, respectively.
In assay [1], `O=C(O)c1ccc2c(c1)C(SCc1cccnc1)c1ccccc1CO2` (racemic) yielded a Ki of 250 nM.
Take `O=C(O)c1ccc2c(c1)/C(=N\Cc1cccnc1)c1ccccc1CO2`: affinity in assay [8] was put at a Ki of 120 nM.
`O=C(O)c1ccc2c(c1)/C(=C/Cn1ccnc1)c1ccccc1CO2`: in assay [1], the inhibition constant (Ki) stood at 600 nM.
Same read-out and setting: the figure for `O=C(O)c1ccc2c(c1)C(SCc1cccnc1)c1ccccc1CO2` (single isomer, unassigned; (+)) is 8200 nM.
As to `O=C(O)c1ccc2c(c1)C(SCc1cccnc1)c1ccccc1CO2` (stereo in doubt; (-)-3), in [1], the affinity, expressed as Ki, was 85 nM.
Still for that read-out and setting: with `O=C(O)c1ccc2c(c1)/C(=C\Cn1ccnc1)c1ccccc1CO2` the figure was 4500 nM.
Regarding `O=C(O)c1ccc2c(c1)C(NCc1cccnc1)c1ccccc1CO2` (racemic), the inhibition in [9] came to 12%.
With `O=C(O)CCCC/C=C(\c1ccccc1)c1cccnc1` [(E)-ISBOGREL], in assay [8], the Ki came to 2700 nM. In addition, the Blood urea nitrogen is on record as 48.38 in assay [3] and 58.07 in assay [4]. Also, the 50% inhibitory concentration (IC50) in [5] stood at 280000 nM. Besides, the Serum creatinine came to 2.02 in assay [6] and 2.07 in [7].
Take `C/C(=C\c1ccc(Cc2cccnc2)cc1)C(=O)O`: the inhibition in assay [10] amounted to 14%.
For `O=C(O)c1ccc2c(c1)C(NCc1ccccc1)c1ccccc1CO2` (racemic), the inhibition is 6% in assay [9] and -4% in [2].
